Patent US10308881B2, “Process to produce oil with low polyaromatic hydrocarbon content” (PT PERTAMINA (PERSERO), priority 2010, dated 2019)

Tested on: Salmonella typhimurium TA 1535
Assay: Mutagenicity test (AMES Test, OECD Guidelines for Testing of Chemicals No. 471)
Assay type: cell-based
Conditions: without dilution
From the text: One of the important consideration published in the European Commission 2005/69/EC (European legislation) confirmed the restriction that the level of 8 Grimmers PAHs especially Benzo(a)pyrene (BaP) with amount exceeding the allowed limit will be considered as carcinogenic, mutagenic and toxic, and thereby will be prohibited to produce and distribute within the European legislation area. The presence of PAHs can be detected qualitatively and quantitatively using Benzo(a)Pyrene (BaP) as marker. Commonly known method to measure carcinogenic and mutagenic compound is ASTM E 1687-98 method (Ames test method for determining carcinogenic potential of Virgin Base Oils in Metalworking Fluids) and also Ames test based on OECD Guidelines for Testing of Chemicals No 471(1997). In the present invention method of AMES test using Salmonella typhimurium TA 1535 as microbes that is very sensitive to mutagenic compounds.
The mutagenity test was conducted using AMES Test based on OECD Guidelines for Testing of Chemicals No. 471 (1997). In this test Salmonella typhimurium TA 1535 was used as microbe material which was very sensitive to mutagenic compound. The number of colony which grew was an indicator of mutagenic activity of the PAH compound in the DAE Feed, TDAE-1 and TDAE-2, respectively. […]

C[S+](C)[O-] [DMSO, dimethylsulfoxide]
Average Number of Colony Koloni (With S-9 Mix): 377 | Average Number of Colony Koloni (Without S-9 Mix): 314
